# Results as given in patent publication US8071797B2 (priority 2008, dated 2011).
# Columns and labels:
# [1] = target: T1, HCV polymerase (NS5B570n-Con1) (Hepatitis C virus genotype 1b, UniProt Q9WMX2); assay: HCV NS5B RNA polymerase activity assay; format: biochemical, HCV Con1 strain
# T1 construct: contains a 21 amino acid deletion at the C-terminus relative to the full-length HCV polymerase; 6-histidine (N); made in house; host or cells: E. coli BL21 (DE) pLysS
# How it was run: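 His6-tagged NS5B Con1 (genotype 1b, 21-aa C-terminal deletion; 20 nM) copied 20 nM cIRES RNA template with [3H]UTP plus 1 μM ATP, CTP and GTP in pH 8.0 Tris buffer with 4 mM MgCl2 and DTT, 2 h at 30 °C. TCA-precipitated RNA counted by scintillation. IC50 from four-parameter fit versus no-compound control, no-enzyme background subtracted.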
# [2] = tested on: HCV replicon cells (2209-23), genotype 1b replicon in Huh7 cells; assay: HCV replicon assay (Renilla luciferase reporter); format: cell-based, HCV genotype 1b; details: Hepatitis C virus, Huh-7, 72 h; cell line 2209-23, three days incubation
# HCV = details: monotherapy; cited from earlier work
# in vitro = details: human
# [3] = IC50 NS5B polymerase assay, Table I
# [4] = Polymerase Assay IC50, Table II
SMILES,melting point [°C],"IC50 [1, 3] [µM]",also measured
"CNC(=O)c1c(-c2ccc(Oc3ccc(F)cc3)cc2)oc2cc(N(CCO)S(C)(=O)=O)c(C3CC3)cc12 [Compound I-32, 5-Cyclopropyl-2-[4-(4-fluoro-phenoxy)-phenyl]-6-[(2-hydroxy-ethyl)-methanesulfonyl-amino]-benzofuran-3-carboxylic acid methylamide]",110 to 115,0.06,
CNC(=O)c1c(-c2ccc(Nc3ccccn3)cc2)oc2cc(N(CCO)S(C)(=O)=O)c(OC)cc12 [Compound I-123],241 to 243,0.156,
"CNC(=O)c1c(-c2ccc(Oc3ccccc3)cc2)oc2cc(N3CCN(C)S3(=O)=O)c(C3CC3)cc12 [Compound I-105, 5-Cyclopropyl-6-(5-methyl-1,1-dioxo-1λ^6-[1,2,5]thiadiazolidin-2-yl)-2-(4-phenoxy-phenyl)-benzofuran-3-carboxylic acid methylamide]",105 to 107,0.041,
CNC(=O)c1c(-c2ccc(Oc3ccc(F)cc3)cc2)oc2cc(N(CC(N)CO)S(C)(=O)=O)c(C3CC3)cc12.Cl (stereo not drawn) [Compound I-107],178 to 180,0.019,
CNC(=O)c1c(-c2ccc(Oc3ccccc3)cc2)oc2cc(N(CCO)S(C)(=O)=O)c(C3CC3)cc12 [Compound I-33],110 to 115,0.021,
"CNC(=O)c1c(-c2ccc(Oc3ccccc3)cc2)oc2cc(N3CCNS3(=O)=O)c(C3CC3)cc12 [Compound I-102, 5-Cyclopropyl-6-(1,1-dioxo-1λ^6-[1,2,5]thiadiazolidin-2-yl)-2-(4-phenoxy-phenyl)-benzofuran-3-carboxylic acid methylamide]",183.4 to 184.5,0.02,
"CNC(=O)c1c(-c2ccc(Oc3ccc(F)cc3)cc2)oc2cc(N(CCS(C)(=O)=O)S(C)(=O)=O)c(C3CC3)cc12 [Compound I-83, 5-cyclopropyl-2-[4-(4-fluoro-phenoxy)-phenyl]-6-[methanesulfonyl-(2-methanesulfonyl-ethyl)-amino]-benzofuran-3-carboxylic acid methylamide]",158 to 160,0.029,
CNC(=O)c1c(-c2ccc(Oc3ccccc3)cc2)oc2cc(N3CCCCS3(=O)=O)c(C3CC3)cc12 [Compound I-93],197 to 199,0.071,
CNC(=O)c1c(-c2ccc(Oc3ccc(F)cc3)cc2)oc2cc(N(CCCNS(C)(=O)=O)S(C)(=O)=O)c(C3CC3)cc12 [Compound I-116],,,IC50 [2]: 0.004 µM
"NC(=O)c1ncn([C@@H]2O[C@H](CO)[C@@H](O)[C@H]2O)n1 [ribavirin, 1-((2R,3R,4S,5R)-3,4-Dihydroxy-5-hydroxymethyl-tetrahydro-furan-2-yl)-1H-[1,2,4]triazole-3-carboxylic acid amide]",,,patients in whom serum amino transferase levels are reduced to normal (HCV): 40%
CNC(=O)c1c(-c2ccc(Oc3ccc(F)cc3)cc2)oc2cc(N(CCN)S(C)(=O)=O)c(C3CC3)cc12.Cl [Compound I-74],223 to 224,0.083,
"CNC(=O)c1c(-c2ccc(Oc3ccccc3)cc2)oc2cc(N3CCCS3(=O)=O)c(C3CC3)cc12 [Compound I-82, 5-Cyclopropyl-6-(1,1-dioxo-1λ^6-isothiazolidin-2-yl)-2-(4-phenoxy-phenyl)-benzofuran-3-carboxylic acid methylamide]",174 to 176,0.066,
"CNC(=O)c1c(-c2ccc(Nc3ccccc3)cc2)oc2cc(N(CCO)S(C)(=O)=O)c(OC)cc12 [Compound I-1, 6-[(2-hydroxy-ethyl)-methanesulfonyl-amino]-5-methoxy-2-(4-phenylamino-phenyl)-benzofuran-3-carboxylic acid methylamide]",144.6 to 146.9,0.043,"CC50 (in vitro): 30.6 µM; IC50 [2]: 0.043 µM; IC50 [1, 4]: 0.005 µM"
CNC(=O)c1c(-c2ccc(Nc3ccc(C(C)C)cc3)cc2)oc2cc(N(CCO)S(C)(=O)=O)c(OC)cc12 [Compound I-6],223.9 to 234.5,0.544,
CNC(=O)c1c(-c2ccc(Oc3ccc(F)cc3)cc2)oc2cc(C(C)=O)c(OC)cc12 [Compound I-104],207 to 209,0.139,
CNC(=O)c1c(-c2ccc(Oc3ccccc3)cc2)oc2cc(N3CCOCC3)c(C3CC3)cc12 [Compound I-77],223.4 to 223.9,0.672,
CNC(=O)c1c(-c2ccc(Oc3ccc(F)cc3)cc2)oc2cc(NS(C)(=O)=O)c(C3CC3)cc12 [Compound I-40],169 to 170,0.098,
"CNC(=O)c1c(-c2ccc(Oc3ccc(F)cc3)cc2)oc2cc(N(CCO)S(C)(=O)=O)ccc12 [Compound I-64, 2-[4-(4-Fluoro-phenoxy)-phenyl]-6-[(2-hydroxy-ethyl)-methanesulfonyl-amino]-benzofuran-3-carboxylic acid methylamide]",214.6 to 215.7,0.415,
CNC(=O)c1c(-c2ccc(Oc3ccc(F)cc3)cc2)oc2cc(N(CCCN)S(C)(=O)=O)c(C3CC3)cc12 [Compound I-69],,0.018,"CC50 (in vitro): 4.6 µM; IC50 [2]: 0.01 µM; IC50 [1, 4]: 0.018 µM"
"CNC(=O)c1c(-c2ccc(Oc3ccccc3)cc2)oc2cc(C3CCCN3)c(C3CC3)cc12 (stereo not drawn) [Compound I-90, 5-5-Cyclopropyl-2-(4-phenoxy-phenyl)-6-pyrrolidin-2-yl-benzofuran-3-carboxylic acid methylamideyclopropyl-2-(4-phenoxy-phenyl)-6-pyrrolidin-2-yl-benzofuran-3-carboxylic acid methylamide]",,0.254,
CNC(=O)c1c(-c2ccc(Oc3cccc(F)c3F)cc2)oc2cc(N(CCO)S(C)(=O)=O)c(OC)cc12 [Compound I-22],,0.055,
CNC(=O)c1c(-c2ccc(Oc3ccc(F)cc3)cc2)oc2cc(N(CCO)S(C)(=O)=O)c(C)cc12 [Compound I-55],,0.044,
CNC(=O)c1c(-c2ccc(Nc3ccc(F)cn3)cc2)oc2cc(N(CCO)S(C)(=O)=O)c(OC)cc12 [Compound I-124],,0.195,
CNC(=O)c1c(-c2ccc(Oc3ccc(F)cc3)cc2)oc2cc(N(CCNS(C)(=O)=O)S(C)(=O)=O)c(C3CC3)cc12 [Compound I-80],,0.179,
"CNC(=O)c1c(-c2ccc(Oc3ccc(F)cc3)cc2)oc2cc(N(C3CCC(N)CC3)S(C)(=O)=O)c(C3CC3)cc12 (stereo not drawn) [Compound I-98, 6-[(4-Amino-cyclohexyl)-methanesulfonyl-amino]-5-cyclopropyl-2-[4-(4-fluoro-phenoxy)-phenyl]-benzofuran-3-carboxylic acid methylamide]",,0.044,
"CNC(=O)c1c(-c2ccc(Oc3ccc(F)cc3)cc2)oc2cc(C3CCCN3C(C)=O)c(OC)cc12 (stereo not drawn) [Compound I-109, 6-(1-acetyl-pyrrolidin-2-yl)-2-[4-(4-fluoro-phenoxy)-phenyl]-5-methoxy-benzofuran-3-carboxylic acid methylamide]",,0.044,
